US4175081A, “5-Substituted thiadiazole ureas” (priority 1977, dated 1979)

Key:
Turnip (TP) [1] = assay: Pre-emergence herbicide test; assay type: in vivo, Brassica sp.; conditions: Brassica rapa, pre-emergence, 336 h; 8 lb/acre; two weeks after treatment
How it was run: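 Turnip (Brassica sp.) seeds were surface sown in 3' plastic pots of potting soil, covered with a thin layer of screened soil, and sub-irrigated in greenhouse trays. Pots were seeded one day ahead of treatment, sprayed pre-emergence under a hood with a fixed nozzle and moving belt, then kept in the greenhouse.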

Bean (BN) [2] = assay: Pre-emergence herbicide test; assay type: in vivo, Phaseolus vulgaris var. Black Valentine; conditions: Phaseolus vulgaris, 336 h, 8 lb/acre, two weeks after treatment
How it was run: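 Black Valentine bean was seeded in potting soil one day before spraying. Compound was applied pre-emergence at 8 lbs/acre (also 4 lbs/acre) in 38 gallons per acre. Plants were sub-irrigated and injury or control was rated visually after two weeks.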

Barnyard grass (BG) [3] = assay: Post-emergence herbicide test; assay type: in vivo; conditions: Echinochloa crus-galli, 336 h, 8 lb/acre, two weeks after treatment
How it was run: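 Greenhouse pot-grown barnyard grass seedlings sprayed post-emergence at 8 lbs active compound per acre (some at 4 lbs/acre) in 38 gallons per acre, then sub-irrigated. Injury or control rated visually two weeks after treatment.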

Johnson grass (JG) [4] = assay: Pre-emergence herbicide test; assay type: in vivo, Sorgum helepense; conditions: Sorghum halepense, 336 h, 8 lb/acre, two weeks after treatment
How it was run: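 Pots seeded one day before spraying; compound applied pre-emergence at 8 lbs/acre (or 4 lbs/acre) in 38 gallons/acre spray volume. Sub-irrigated in greenhouse; injury/control rated visually two weeks after treatment.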

Cotton (CT) [5] = assay: Pre-emergence herbicide test; assay type: in vivo, Gossypium hirsutum var. DPL smooth leaf; conditions: Gossypium hirsutum, 336 h, 8 lb/acre, two weeks after treatment
How it was run: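 Crop and weed species seeded one day before treatment, then sprayed pre-emergence at 8 lbs actual compound per acre (also 4 lbs/acre formulations) in 38 gallons per acre. Pots kept in greenhouse with sub-irrigation only; injury or control visually rated two weeks after treatment.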

Crabgrass (CG) [6] = assay: Pre-emergence herbicide test; assay type: in vivo, Digitaria sanquinalis; conditions: Digitaria sanguinalis, pre-emergence, 336 h; 8 lb/acre; two weeks after treatment
How it was run: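 Crabgrass (Digitaria sanquinalis) was surface seeded in 3' plastic pots of potting soil, covered with screened soil, and watered by sub-irrigation in greenhouse trays. Pots were seeded one day before spraying in a hood with a moving belt and fixed nozzle. Plants stayed in the greenhouse on sub-irrigation, and pre-emergence control was rated visually two weeks after treatment.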

Bean (BN) [7] = assay: Post-emergence herbicide test; assay type: in vivo, Phaseolus vulgaris var. Black Valentine; conditions: Phaseolus vulgaris, post-emergence, 336 h; 8 lb/acre; two weeks after treatment
How it was run: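 Snapbean (Phaseolus vulgaris var. Black Valentine) was tested post-emergence. Four seeds were sown in 3' plastic pots of potting soil at a depth equal to the seed diameter, then sub-irrigated in greenhouse trays. Planting dates were staggered so plants were sprayed once primary leaves had expanded, with the growing point at the primary leaf nodes.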

Barnyard grass (BG) [8] = assay: Pre-emergence herbicide test; assay type: in vivo; conditions: Echinochloa crus-galli, 336 h, 8 lb/acre, two weeks after treatment
How it was run: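 Barnyard grass surface-seeded in potting soil and sprayed pre-emergence one day after seeding, at 8 or 4 lb compound/acre in 38 gal/acre spray volume. Pots kept in greenhouse with sub-irrigation only; injury or control rated visually two weeks after treatment.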

Crabgrass (CG) [9] = assay: Post-emergence herbicide test; assay type: in vivo, Digitaria sanquinalis; conditions: Digitaria sanguinalis, post-emergence, 336 h; 8 lb/acre; two weeks after treatment
How it was run: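 Crabgrass (Digitaria sanquinalis) was surface seeded individually in 3' plastic pots of potting soil, covered with screened soil, and watered by sub-irrigation in greenhouse trays. Planting was staggered so seedlings reached the target stage together. Post-emergence sprays were applied in a hood with a removable belt and fixed nozzle, and control was visually rated two weeks after treatment.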

Corn (CN) [10] = assay: Pre-emergence herbicide test; assay type: in vivo; conditions: Zea mays, 336 h, 8 lb/acre, two weeks after treatment
How it was run: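 Four corn seeds per pot, sown at seed-diameter depth one day before spraying, got soil surface treatment at 8 lbs/acre (4 lbs/acre formulations also prepared) in 38 gallons/acre. Pots were greenhouse-held with sub-irrigation only. Injury or control was scored visually two weeks after treatment.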

[11] = system: Yellow foxtail grass (YF); assay: Post-emergence herbicide test; assay type: in vivo, Setaria glauca; conditions: Setaria, 336 h, 8 lb/acre, two weeks after treatment
Experimental: Yellow foxtail grass (YF)--Setaria glauca
All crop and weed species were planted individually in 3' plastic pots containing potting soil. Four seeds each of corn, cotton, and snapbeans were seeded to a depth equal to the diameter of the seed. All other species were surface seeded and sprinkled with screened soil in an amount sufficient to cover the seed. Immediately after planting, all pots were watered by sub-irrigation in greenhouse trays. Pots for the pre-emergence phase were seeded one day before treatment.
Planting dates for the post-emergence phase were varied so that all seedlings would reach the desired stage of development simultaneously. The proper stage of seedling development for treatment in the post-emergence phase is as follows:
Compounds were tested at rates of application equivalent to 8 lbs. of actual compound per acre in a spray volume of 38 gallons per acre. Spray hood constants required to deliver the above volume are as follows:
Formulations for spray applications were prepared in 50 ml volumes with the following three components:
Formulations for the 4 lbs/acre rate were prepared by adjusting the amount of active ingredient accordingly.
Spray applications were made in a hood containing a removable belt and fixed spray nozzle. For passage through the spray hood, one pot of each specie (pre-emergence phase) was placed on the rear half of the flat. Treatments were removed to the greenhouse after spraying. Watering during the observation period was done only by sub-irrigation.
Two weeks after treatment, pre- and post-emergence injury or control was visually rated, and the results were as shown in the following tables. Pre-emergence data are provided in TABLE III and post-emergence data are provided in TABLE IV, for compounds having the formula illustrated in TABLE I. Correspondingly, pre-emergence and post-emergence data, respectively, are set forth in TABLES V AND VI, for compounds having the formula illustrated in TABLE II.

Corn (CN) [12] = assay: Post-emergence herbicide test; assay type: in vivo; conditions: Zea mays, 336 h, 8 lb/acre, two weeks after treatment
How it was run: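 Greenhouse seedlings grown in potting soil and sprayed post-emergence at 8 lbs compound/acre (formulations also made for 4 lbs/acre) in 38 gallons/acre spray volume. Watering by sub-irrigation only. Injury or control rated visually two weeks after treatment.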

Cotton (CT) [13] = assay: Post-emergence herbicide test; assay type: in vivo, Gossypium hirsutum var. DPL smooth leaf; conditions: Gossypium hirsutum, post-emergence, 336 h; 8 lb/acre; two weeks after treatment
How it was run: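 Cotton (Gossypium hirsutum var. DPL smooth leaf) was grown in 3' plastic pots of potting soil, four seeds per pot, planted at a depth equal to the seed diameter and watered by sub-irrigation. At the stage of expanded cotyledons with the first true leaf 1' long, plants were sprayed post-emergence in a hood with a fixed nozzle over a moving belt. Percent control was rated visually two weeks later.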

Johnson grass (JG) [14] = assay: Post-emergence herbicide test; assay type: in vivo, Sorgum helepense; conditions: Sorghum halepense, 336 h, 8 lb/acre, two weeks after treatment
How it was run: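 Greenhouse pot-grown seedlings sprayed post-emergence at 8 lbs compound per acre (some at 4 lbs/acre) in 38 gallons per acre spray volume. Sub-irrigated thereafter. Injury/control rated visually two weeks after treatment.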

Turnip (TP) [15] = assay: Post-emergence herbicide test; assay type: in vivo, Brassica sp.; conditions: Brassica rapa, post-emergence, 336 h; 8 lb/acre; two weeks after treatment
How it was run: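 A greenhouse post-emergence herbicide test on turnip. Seeds were sown on the surface of potting soil in 3' plastic pots, lightly covered with screened soil and watered from below. Planting was timed so seedlings had 1 or 2 true leaves above the cotyledons at spraying, done in a hood with a fixed nozzle. Control or injury was scored by eye after two weeks.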

Amaranth pigweed (PW) [16] = assay: Pre-emergence herbicide test; assay type: in vivo, Amaranthus retroflexus; conditions: 336 h, 8 lb/acre, two weeks after treatment
How it was run: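 Pigweed was surface-seeded in potted soil one day before spraying at 8 lbs compound per acre, or 4 lbs/acre, in 38 gallons per acre. Pots were kept in the greenhouse with sub-irrigation only; injury or control was rated visually two weeks after treatment.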

Amaranth pigweed (PW) [17] = assay: Post-emergence herbicide test; assay type: in vivo, Amaranthus retroflexus; conditions: 336 h, 8 lb/acre, two weeks after treatment
How it was run: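 Pot-grown pigweed was sprayed post-emergence at the 1–2 true-leaf stage with compound at rates equivalent to 8 lbs per acre (formulations also prepared for 4 lbs/acre) in 38 gallons per acre, using a hood with fixed nozzle. Plants were sub-irrigated in the greenhouse, and injury or control was rated visually two weeks after treatment.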

| SMILES | pest or weed control at 8966.8 g/ha (Turnip (TP) [1]) [%] | pest or weed control at 8966.8 g/ha (Bean (BN) [2]) [%] | pest or weed control at 8966.8 g/ha (Barnyard grass (BG) [3]) [%] | pest or weed control at 8966.8 g/ha (Johnson grass (JG) [4]) [%] | pest or weed control at 8966.8 g/ha (Cotton (CT) [5]) [%] | pest or weed control at 8966.8 g/ha (Crabgrass (CG) [6]) [%] | pest or weed control at 8966.8 g/ha (Bean (BN) [7]) [%] | pest or weed control at 8966.8 g/ha (Barnyard grass (BG) [8]) [%] | pest or weed control at 8966.8 g/ha (Crabgrass (CG) [9]) [%] | pest or weed control at 8966.8 g/ha (Corn (CN) [10]) [%] | pest or weed control at 8966.8 g/ha [11] [%] | pest or weed control at 8966.8 g/ha (Corn (CN) [12]) [%] | pest or weed control at 8966.8 g/ha (Cotton (CT) [13]) [%] | pest or weed control at 8966.8 g/ha (Johnson grass (JG) [14]) [%] | pest or weed control at 8966.8 g/ha (Turnip (TP) [15]) [%] | pest or weed control at 8966.8 g/ha (Amaranth pigweed (PW) [16]) [%] | pest or weed control at 8966.8 g/ha (Amaranth pigweed (PW) [17]) [%] |
| --- | --- | --- | --- | --- | --- | --- | --- | --- | --- | --- | --- | --- | --- | --- | --- | --- | --- |
| CNC(=O)Nc1nnc(-c2cccc(Cl)c2)s1 [Example 72] | 0 | 100 | 40 | 0 | 80 | 0 | 20 | 0 | 30 | 30 | 30 | 0 | 30 | 20 | 40 |  |  |
| CNC(=O)Nc1nnc(SCc2ccc(Cl)cc2)s1 [Example 87] | 10 | 100 | 20 | 20 | 50 | 10 | 100 | 20 | 20 | 10 |  | 10 | 70 | 10 | 60 | 70 | 40 |
